In patent US20260130905A1, “TOPICAL FORMULATIONS OF DEUCRAVACITINIB” (Bristol-Myers Squibb Company, priority 2021, published 2026):
Converted amounts (≈) assume the structure as drawn.

Key:
Format in all cases: physicochemical
[1] = Solubility of deucravacitinib in water
[2] = Solubility of deucravacitinib in different solvents
From the text: The solubility of deucravacitinib was examined in various solvents. […] As these solvents can, in some instances, result in skin irritation, they were not included in the development of the formulations described later in the Examples.

[3] = Solubility of deucravacitinib in solvent systems
From the text: The solubility of deucravacitinib was examined in various solvent systems that included water, as water is an essential component in aqueous gels and creams. The example solvent systems in Table 2 were designed for cream formulations. The total percentage of the solvent system was up to 80% of the total % w/w of the composition, with the remaining up to 20% reserved for oil component(s). Water or acidic buffer (an aqueous solution) accounted for 25% w/w of the total composition.

[4] = solvent: N-methyl-2-pyrrolidone (NMP)
[5] = solvent: dimethyl sulfoxide (DMSO)

[2H]C([2H])([2H])NC(=O)c1nnc(NC(=O)C2CC2)cc1Nc1cccc(-c2ncn(C)n2)c1OC [Deucravacitinib, 6-(cyclopropanecarboxamido)-4-((2-methoxy-3-(1-methyl-1H-1,2,4-triazol-3-yl)phenyl)amino)-N-(methyl-d3)pyridazine-3-carboxamide]
solubility [1]: ~9 µg/mL (≈ 21.2 µM) | solubility in water [1]: ~0.00009 % w/w | Deucravacitinib solubility ([2]; solvent: Caprylic/capric triglyceride): 0.01 % w/w | Deucravacitinib solubility ([2]; solvent: Diethylene glycol monoethyl ether (DEGEE)): 0.62 % w/w | Deucravacitinib solubility ([2]; solvent: Diisopropyl adipate): 0.01 % w/w | Deucravacitinib solubility ([2]; solvent: Dimethyl isosorbide (DMI)): 0.51 % w/w | Deucravacitinib solubility ([2]; solvent: Ethanol): 0.07 % w/w | Deucravacitinib solubility ([2]; solvent: Isopropanol): 0.02 % w/w | Deucravacitinib solubility ([2]; solvent: Isopropyl myristate): 0.00 % w/w | Deucravacitinib solubility [2, 4]: 10.09 % w/w | solubility (in words) [2, 4]: high solubility | Deucravacitinib solubility ([2]; solvent: Octyldodecanol): 0.01 % w/w | Deucravacitinib solubility ([2]; solvent: Polyethylene glycol (PEG) 400): 0.64 % w/w | Deucravacitinib solubility ([2]; solvent: Polysorbate 80): 0.31 % w/w | Deucravacitinib solubility ([2]; solvent: Propylene glycol): 0.16 % w/w | Deucravacitinib solubility [2, 5]: 9.49 % w/w | solubility (in words) [2, 5]: high solubility | Deucravacitinib solubility ([3]; S1: water 25, PEG 400 38, DEGEE 15, benzyl alcohol 2 % w/w): 0.51 % w/w | Deucravacitinib solubility ([3]; S2: water 25, PEG 400 38, DMI 15, benzyl alcohol 2 % w/w): 0.48 % w/w | Deucravacitinib solubility ([3]; S3: water 25, PEG 400 23, DEGEE 15, DMI 15, benzyl alcohol 2 % w/w): 0.72 % w/w | Deucravacitinib solubility ([3]; S4: 0.1N hydrochloric acid solution 25, PEG 400 38, DEGEE 15, benzyl alcohol 2 % w/w): 0.77 % w/w | Deucravacitinib solubility ([3]; S5: 0.1N hydrochloric acid solution 25, PEG 400 38, DMI 15, benzyl alcohol 2 % w/w): 0.83 % w/w | Deucravacitinib solubility ([3]; S6: 0.1N hydrochloric acid solution 25, PEG 400 23, DEGEE 15, DMI 15, benzyl alcohol 2 % w/w): 1.33 % w/w | solubility (in words) ([3]; three-solvent system S3 (PEG 400, DEGEE, DMI) compared to two-solvent systems S1 and S2): greatest solubility
